# Data: US11292971B2, “Dissolution of hexamine in non-aqueous solvent” (ECOLAB USA INC., priority 2017, dated 2022)
# Key:
# [1] = Dissolution of hexamine in cinnamyl alcohol and glycerin: slurry left two days, clear supernatant analyzed for composition; format: physicochemical; conditions: about room temperature
# Description: Slurries were prepared by mixing hexamine in cinnamyl alcohol or a mixture of cinnamyl alcohol and glycerin at about room temperature. The compositions were then allowed to sit undisturbed for two days and the clear supernatant decanted off and analyzed for composition. As the results below illustrate, clear stable solutions of hexamine in various ratios of glycerin and cinnamyl alcohol were obtained.
# [2] = 20° C., cited from earlier work
structure (smiles),measurement,setting,value
"C1N2CN3CN1CN(C2)C3 [Hexamine, 1,3,5,7-tetraazatricyclo[3.3.1.1^3,7]decane]",Hexamine in stable solution,"[1]; cinnamyl alcohol 16, glycerin (<1% water) 76 weight %",8 Weight %
same,Hexamine in stable solution,"[1]; cinnamyl alcohol 32, glycerin (<1% water) 63 weight %",5 Weight %
same,Hexamine in stable solution,"[1]; cinnamyl alcohol 37, glycerin (<1% water) 55 weight %",8 Weight %
same,Hexamine in stable solution,"[1]; cinnamyl alcohol 50, glycerin (<1% water) 43 weight %",7 Weight %
same,Hexamine in stable solution,"[1]; cinnamyl alcohol 59, glycerin (<1% water) 34 weight %",7 Weight %
same,Hexamine in stable solution,"[1]; cinnamyl alcohol 68, glycerin (<1% water) 22 weight %",10 Weight %
same,Hexamine in stable solution,"[1]; cinnamyl alcohol 78, glycerin (<1% water) 11 weight %",11 Weight %
same,Hexamine in stable solution,"[1]; cinnamyl alcohol 84, glycerin (<1% water) 6 weight %",10 Weight %
same,Hexamine in stable solution,"[1]; cinnamyl alcohol 93, glycerin (<1% water) 0 weight %",7 Weight %
same,solubility in acetone,[2]; acetone,0.65 g
same,solubility in benzene,[2]; benzene,0.23 g
same,solubility in chloroform,[2]; chloroform,13.4 g
same,solubility in ethanol,[2]; ethanol,2.89 g
same,solubility in ether,[2]; ether,0.06 g
same,solubility in methanol,[2]; methanol,7.25 g
same,solubility in petroleum ether,[2]; petroleum ether,near zero
same,solubility in xylene,[2]; xylene,0.14 g
